{"source": "patent US11707474B2", "about": "“Methods for treating acute myeloid leukemia and related conditions” (GlycoMimetics, Inc., priority 2018, dated 2023)", "key": {"KG1": {"system": "KG1", "test": "Flow cytometry, binding of E-selectin-PE conjugate to KG1 cells", "type": "cell-based, human", "details": "100 nM", "source_text": "(§1) These findings indicate that hypomethylating agents, including 5-azacytidine, may increase the adhesion of leukemic blasts in the bone marrow and therefore hinder the intended anti-leukemic effect. This could explain a source of chemoresistance, and potential for relapse, in patients treated with hypomethylating agents."}, "KG1 cells [1]": {"system": "KG1 cells", "test": "Static adhesion of KG1 cells to E-selectin coated plates", "type": "cell-based, human", "details": "compared to control treated KG1 cells", "source_text": "as §1"}, "KG1 cells [2]": {"system": "KG1 cells", "test": "Systemic KG1 AML model survival", "type": "in vivo, NSG female mice", "details": "5 mg/kg IP days 7, 10, 13, 16, 19 alone", "experimental": "The potential relevance of these in vitro observations was assessed in NSG female mice with pre-existing disseminated KG1 cells and treated with a compound of Formula (I) (40 mg/kg, IP, QD for 14 days), 5-azacytidine (5 mg/kg, IP, administered on days 7, 10, 13, 16, and 19 (5 doses total)), or the combination of both compounds. Under the conditions of the assay, the median survival time of mice treated with saline alone or a compound of Formula (I) was 69.5 and 69 days, respectively (FIG. 9). Administration of a compound of Formula (I) with 5-azacytidine increased median survival time beyond that obtained with 5-azacytidine treatment alone (>104 days versus 88 days; P=0.014, FIG. 9)."}}, "data": [{"smiles": "Nc1ncn([C@@H]2O[C@H](CO)[C@@H](O)[C@H]2O)c(=O)n1", "note": "[5-azacytidine, reference compound]", "values": [{"measurement": "increase in cell binding of E-selectin-PE conjugate", "setting": "KG1", "result": 38, "unit": "%"}, {"measurement": "increase in static adhesion to E-selectin coated plates", "setting": "KG1 cells [1]", "result": 57, "unit": "%"}, {"measurement": "median survival time", "setting": "KG1 cells [2]", "result": 88, "unit": "days"}]}]}
